# Measurements reported in patent US10206908B2, “3-(1H-pyrrolo[3,2-C]pyridin-2-YL)-1H-pyrazolo[3,4-C]pyridines and therapeutic uses thereof” (Samumed, LLC, priority 2015, dated 2019).
# Key:
# Type in all cases: cell-based
# [1] = tested on: SW480 colon cancer cells; assay: Cell viability assay (CellTiter-Blue) in SW480 colon cancer cells; details: Homo sapiens; for EC50: 96 h, SW480 cell viability, four days; for inhibition at 10 µM: SW480, read-out: percent inhibition at 10 μM
# Experimental: Representative compounds were screened using the following assay procedure to assess the effect on cell viability as described below.
# Approximately 2×10^3 SW480 colon cancer cells were seeded into each well and allowed to incubate in the presence or absence of compound for four days at 37° C./5% CO2. Eight replicates of DMSO-treated cells served as controls and cells treated with compound were performed in duplicate.
# After incubation, 20 μL of CellTiter-Blue (Promega) was added to each well allowed to incubate for approximately 3 hours. This reagent was a buffered solution which contains resazurin, metabolically active cells were able to reduce rezarurin (blue) into resorufin (pink) which was highly fluorescent. This measured fluorescence was used as a readout for cell viability.
# [2] = tested on: Wnt activity (Sp5-Luc reporter, SW480 colon carcinoma cells); assay: Screening assay for Wnt activity: Sp5-Luc reporter gene assay in SW480 colon carcinoma cells; details: Homo sapiens; for EC50: Sp5-Luc reporter, SW480 cells, overnight incubation; for inhibition at 10 µM: SW480, read-out: percent inhibition at 10 μM
# Text: The screening assay for Wnt activity is described as follows. Reporter cell lines can be generated by stably transducing cancer cell lines (e.g., colon cancer) or primary cells (e.g., IEC-6 intestinal cells) with a lentiviral construct that includes a Wnt-responsive promoter driving expression of the firefly luciferase gene.
# SW480 colon carcinoma cells were transduced with a lentiviral vector expressing luciferase with a human Sp5 promoter consisting of a sequence of eight TCF/LEF binding sites. SW480 cells stably expressing the Sp5-Luc reporter gene and a hygromycin resistance gene were selected by treatment with 150 μg/mL of hygromycin for 7 days. These stably transduced SW480 cells were expanded in cell culture and used for all further screening activities. […] For Sp5-Luc reporter gene assays, the cells were plated at 4,000 cells/well in 384-well plates with medium containing 1% fetal bovine serum and incubated overnight at 37° C. and 5% CO2. Following incubation, 20 μl of BrightGlo luminescence reagent (Promega) was added to each well of the 384-well assay plates. The plates were placed on an orbital shaker for 2 min and then luminescence was quantified using the Envision (Perkin Elmer) plate reader. Readings were normalized to DMSO only treated cells, and normalized activities were utilized for EC50 calculations using the dose-response log (inhibitor) vs. response-variable slope (four parameters) nonlinear regression feature available in GraphPad Prism 5.0 (or Dotmatics).
# [3] = tested on: IL-6 (THP-1 cells); assay: IL-6 inhibition in LPS-stimulated THP-1 monocytes (HTRF); details: Homo sapiens; for EC50: IL-6, THP-1 cells, LPS 500 ng/mL, 22 hours; for inhibition at 10 µM: THP-1, read-out: percent inhibition at 10 μM
# Experimental: Compound Screening: THP-1 cells were cultured in basal media with 1% FBS for 24 hours before the start of the assay. […] THP-1 cells were plated at 5000 cells/well in the 384-well plates and incubated at 37° C. for 2 h. 500 ng/mL of LPS was added after 2 hours and cells were incubated for another 22 hours at 37° C. Plates were spun in a centrifuge for 1 minute at […] and a mixture of anti-IL6 XL665, and anti-IL6 Cryptate diluted in reconstitution buffer (Cisbio Inc.) was added to each well. Following incubation for 3 hrs at room temperature, Homogeneous Time-Resolved Fluorescence (HTRF) was measured using the Envision (Perkin Elmer) at 665 nm and […]. The ratio of fluorescence at 665 nm to 620 nm was used as a readout for IL6 quantification. All samples were processed in duplicate. Readings were normalized to DMSO treated cells and normalized activities were utilized for EC50 calculations using the dose-response log (inhibitor) vs. response-variable slope (four parameters) nonlinear regression feature available in GraphPad Prism 5.0 (or Dotmatics).
# [4] = tested on: primary human fibroblasts derived from IPF patients (LL29 cells) treated with TGF-β1; assay: Inhibition of the fibrotic process: αSMA staining in TGF-β1 treated LL29 fibroblasts; details: Fibroblast; for EC50: 96 h, % αSMA positive LL29 cells, TGF-β1 20 ng/mL, 4 days; for inhibition at 10 µM: read-out: percent inhibition at 10 μM
# Experimental: Representative compounds were screened using primary human fibroblasts (derived from IPF patients) treated with TGF-β1 to determine their ability to inhibit the fibrotic process.
# LL29 cells are plated at 1,500 cells/well in 80 μL/well F12 medium supplemented with 1% Fetal Bovine Serum. […] Wells treated with TGF-β1 and containing DMSO were used as controls. […] Following incubation for 4 days, SYTOX green nucleic acid stain (Life Technologies [Thermo Fisher Scientific]) was added to the wells at a final concentration of 1 μM and incubated at room temperature for 30 min.
EC50 [1],EC50 [2],EC50 [3],Structure (SMILES),EC50 [4],inhibition at 10 µM [1],inhibition at 10 µM [3],inhibition at 10 µM [4],inhibition at 10 µM [2]
1720 nM,1180 nM,940 nM,"CC(C)(C)C(=O)Nc1cncc(-c2cc3c(-c4cc5c(-c6cccc(F)c6)nccc5[nH]4)n[nH]c3cn2)c1 [Compound 8, N-(5-(3-(4-(3-Fluorophenyl)-1H-pyrrolo[3,2-c]pyridin-2-yl)-1H-pyrazolo[3,4-c]pyridin-5-yl)pyridin-3-yl)pivalamide]",627 nM,,,,
> 10000 nM,3820 nM,> 10000 nM,"O=C(Nc1cncc(-c2cc3c(-c4cc5c(-c6cccc(F)c6)nccc5[nH]4)n[nH]c3cn2)c1)c1ccccc1 [Compound 11, N-(5-(3-(4-(3-Fluorophenyl)-1H-pyrrolo[3,2-c]pyridin-2-yl)-1H-pyrazolo[3,4-c]pyridin-5-yl)pyridin-3-yl)benzamide]",> 10000 nM,34.7%,26.9%,0%,
1330 nM,1140 nM,1090 nM,"CCCCC(=O)Nc1cncc(-c2cc3c(-c4cc5c(-c6cccc(F)c6)nccc5[nH]4)n[nH]c3cn2)c1 [Compound 19, N-(5-(3-(4-(3-Fluorophenyl)-1H-pyrrolo[3,2-c]pyridin-2-yl)-1H-pyrazolo[3,4-c]pyridin-5-yl)pyridin-3-yl)pentanamide]",960 nM,,,,
1440 nM,1230 nM,2030 nM,"O=C(Nc1cncc(-c2cc3c(-c4cc5c(-c6cccc(F)c6)nccc5[nH]4)n[nH]c3cn2)c1)C1CCCCC1 [Compound 23, N-(5-(3-(4-(3-Fluorophenyl)-1H-pyrrolo[3,2-c]pyridin-2-yl)-1H-pyrazolo[3,4-c]pyridin-5-yl)pyridin-3-yl)cyclohexanecarboxamide]",678 nM,,,,
773 nM,343 nM,380 nM,"CC(C)Nc1cncc(-c2cc3c(-c4cc5c(-c6ccc(F)cc6)nccc5[nH]4)n[nH]c3cn2)c1 [Compound 40, 5-(3-(4-(4-Fluorophenyl)-1H-pyrrolo[3,2-c]pyridin-2-yl)-1H-pyrazolo[3,4-c]pyridin-5-yl)-N-isopropylpyridin-3-amine]",56 nM,,,,
1850 nM,2000 nM,3250 nM,"O=C(Cc1ccccc1)Nc1cncc(-c2cc3c(-c4cc5c(-c6ccccc6F)nccc5[nH]4)n[nH]c3cn2)c1 [Compound 66, N-(5-(3-(4-(2-Fluorophenyl)-1H-pyrrolo[3,2-c]pyridin-2-yl)-1H-pyrazolo[3,4-c]pyridin-5-yl)pyridin-3-yl)-2-phenylacetamide]",3310 nM,,,,
> 10000 nM,> 10000 nM,> 10000 nM,"CC(C)CC(=O)Nc1cncc(-c2cc3c(-c4cc5c(-c6cccnc6)nccc5[nH]4)n[nH]c3cn2)c1 [Compound 86, 3-Methyl-N-(5-(3-(4-(pyridin-3-yl)-1H-pyrrolo[3,2-c]pyridin-2-yl)-1H-pyrazolo[3,4-c]pyridin-5-yl)pyridin-3-yl)butanamide]",1920 nM,3.6%,0%,,29.9%
> 10000 nM,418 nM,> 10000 nM,"c1cc(-c2cc3c(-c4cc5c(-c6ccncc6)nccc5[nH]4)n[nH]c3cn2)ccn1 [Compound 130, 5-(Pyridin-4-yl)-3-(4-(pyridin-4-yl)-1H-pyrrolo[3,2-c]pyridin-2-yl)-1H-pyrazolo[3,4-c]pyridine]",96 nM,36.6%,0%,,
1500 nM,1250 nM,1780 nM,"CC(C)CC(=O)Nc1cncc(-c2cc3c(-c4cc5c(N6CCCCC6)nccc5[nH]4)n[nH]c3cn2)c1 [Compound 170, 3-Methyl-N-(5-(3-(4-(piperidin-1-yl)-1H-pyrrolo[3,2-c]pyridin-2-yl)-1H-pyrazolo[3,4-c]pyridin-5-yl)pyridin-3-yl)butanamide]",2360 nM,,,,
> 10000 nM,632 nM,> 10000 nM,"c1cncc(-c2cc3c(-c4cc5c(N6CCCCC6)nccc5[nH]4)n[nH]c3cn2)c1 [Compound 172, 3-(4-(Piperidin-1-yl)-1H-pyrrolo[3,2-c]pyridin-2-yl)-5-(pyridin-3-yl)-1H-pyrazolo[3,4-c]pyridine]",> 10000 nM,10.8%,0%,0%,
6500 nM,4230 nM,9320 nM,"O=C(Cc1ccccc1)Nc1cncc(-c2cc3c(-c4cc5c(N6CCCCC6)nccc5[nH]4)n[nH]c3cn2)c1 [Compound 178, 2-Phenyl-N-(5-(3-(4-(piperidin-1-yl)-1H-pyrrolo[3,2-c]pyridin-2-yl)-1H-pyrazolo[3,4-c]pyridin-5-yl)pyridin-3-yl)acetamide]",> 10000 nM,,,0%,
4160 nM,2450 nM,3390 nM,"CC(C)Nc1cncc(-c2cc3c(-c4cc5c(N6CCCCC6)nccc5[nH]4)n[nH]c3cn2)c1 [Compound 180, N-Isopropyl-5-(3-(4-(piperidin-1-yl)-1H-pyrrolo[3,2-c]pyridin-2-yl)-1H-pyrazolo[3,4-c]pyridin-5-yl)pyridin-3-amine]",2600 nM,,,,
> 10000 nM,> 10000 nM,> 10000 nM,"c1cc2[nH]c(-c3n[nH]c4cnc(-c5cncc(CN6CCCC6)c5)cc34)cc2c(N2CCCCC2)n1 [Compound 182, 3-(4-(Piperidin-1-yl)-1H-pyrrolo[3,2-c]pyridin-2-yl)-5-(5-(pyrrolidin-1-ylmethyl)pyridin-3-yl)-1H-pyrazolo[3,4-c]pyridine]",> 10000 nM,13%,0%,0%,12.7%
> 10000 nM,> 10000 nM,> 10000 nM,"CN1CCN(c2nccc3[nH]c(-c4n[nH]c5cnc(-c6cncnc6)cc45)cc23)CC1 [Compound 251, 3-(4-(4-Methylpiperazin-1-yl)-1H-pyrrolo[3,2-c]pyridin-2-yl)-5-(pyrimidin-5-yl)-1H-pyrazolo[3,4-c]pyridine]",> 10000 nM,0%,12.1%,17.6%,41.7%
844 nM,1030 nM,1010 nM,"c1cncc(-c2cc3c(-c4cc5c(-c6ccoc6)nccc5[nH]4)n[nH]c3cn2)c1 [Compound 312, 3-(4-(Furan-3-yl)-1H-pyrrolo[3,2-c]pyridin-2-yl)-5-(pyridin-3-yl)-1H-pyrazolo[3,4-c]pyridine]",294 nM,,,,
> 10000 nM,1100 nM,2380 nM,"CCCC(=O)Nc1cncc(-c2cc3c(-c4cc5c(-c6ccoc6)nccc5[nH]4)n[nH]c3cn2)c1 [Compound 325, N-(5-(3-(4-(Furan-3-yl)-1H-pyrrolo[3,2-c]pyridin-2-yl)-1H-pyrazolo[3,4-c]pyridin-5-yl)pyridin-3-yl)butyramide]",1740 nM,31.2%,,,
4140 nM,4040 nM,3300 nM,"c1ccc(-c2cc3c(-c4cc5c(-c6cccs6)nccc5[nH]4)n[nH]c3cn2)nc1 [Compound 364, 5-(Pyridin-2-yl)-3-(4-(thiophen-2-yl)-1H-pyrrolo[3,2-c]pyridin-2-yl)-1H-pyrazolo[3,4-c]pyridine]",3120 nM,,,,
